Here are results for one substance from patent US8399609B2, “Treating or preventing extracellular matrix build-up” (RegeneRx Biopharmaceuticals, Inc., priority 2004, dated 2013).

In this test the test system is Human Blood Platelets. The experiment in a line: Platelet aggregation assay (Payton duo-channel aggregometer), PAF-16-induced aggregation in platelet-rich plasma. It is filed as cell-based. Particulars: agonist PAF-16 20 ng/ml. The protocol:
Platelet Aggregation Assay
The inhibitory effects of Tβ4 on platelet aggregation were tested using a Payton duo-channel aggregometer. This aggregometer produces a plot of % light transmission (directly proportional to % aggregation) vs. time.
For each experiment, one 9 ml blood sample was drawn from a fasting, non-smoking, healthy subject into a propylene tube containing 1 ml of 3.8% sodium-citrate (anti-coagulant). This blood sample was then diluted with 2 ml of phosphate buffer (phosphate-buffer saline with 11 mM glucose and 3 mM sodium citrate). Dilution with phosphate buffer aids in stabilization of the platelet environment and retention of platelet activity for a longer period of time. Platelet-rich plasma (PRP) was prepared by centrifuging the blood for 3 min at 2300 RPM. After removal of PRP, the volume of the remaining blood was brought up to 10 ml by adding phosphate buffer, and the sample was once again centrifuged for the preparation of platelet-poor (PPP). To obtain PPP, we centrifuged the blood for 10 min at 2800 RPM.
Platelet aggregation tests were performed by recording % light transmission (vs. time) through samples of PRP. Before each assay, the aggregometer was adjusted such that PRP gave no light transmission. For aggregation assays, duplicate samples (0.4 ml) of PRP were incubated with 1 mM CaCl2 (to restore the physiologic concentration of Ca^++) for 1 min at 37° C. Different amounts of Tβ4, ranging for 20 to 300 ng, dissolved in 30 μl of distilled/deionized water, were added to each assay. The mixture was then incubated and stirred for an additional 2 min before aggregation was induced with an agonist.
Among the agonists used in the experiments were ADP, epinephrine, arachidonic acid, thrombin, collagen (Sigma Chemicals), and PAF (Platelet-activating factor)-16 (from Calbiochem). Concentrations of these reagents were 1 μm, 10 μm, 100 μg/ml, 0.2 NIH units, 0.05 mg/ml, and 20 ng/ml respectively. Two control assays were run at the beginning and end of each experiment. An assay without Tβ4 (but with an equivalent volume of H2O) constitutes a control, and the % light transmission produced by each control is assigned a value of % 100 for each experiment. For the measurement of % inhibition caused by Tβ4, light transmission in a Tβ4 assay was compared to the average light transmission in the start and end controls, using the following formula: […]

Take “thymosin beta 4 (SDKPDMAEIEKFDKSKLKKTETQEKNPLPSKETIEQEKQAGES; Thymosin beta-4; UniProt P62328 2-44, looked up) [Tβ4]”: the “Average % Inhibition of Aggregation” value reads like this: (20 ng Tβ4 per assay (0.4 ml PRP)) 50%; (40 ng Tβ4 per assay (0.4 ml PRP)) 90%; (60 ng Tβ4 per assay (0.4 ml PRP)) 100%; (80 ng Tβ4 per assay (0.4 ml PRP)) 95%; (100 ng Tβ4 per assay (0.4 ml PRP)) 92%; (300 ng Tβ4 per assay (0.4 ml PRP)) 84%.
